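All cell lines were grown in 96-well plates and treated with compound for 48 hours. GI50 marks 50% less growth.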 Activity calls are given as the source filed them. No stated cut-off is given here; in the data, active = GI50 up to about 1.1 µM and inactive = higher.
Assays:
Experiment in all cases: inhibition of tumour cell growth, NCI panel, 48 h
LOX IMVI = system: LOX IMVI
OVCAR-8 = system: OVCAR-8
NCI-H522 = system: NCI-H522
SN12C = system: SN12C
KM12 = system: KM12
HCC 2998 = system: HCC 2998
SF-539 = system: SF-539
K562 = system: K562
786-0 = system: 786-0
SNB-75 = system: SNB-75
HT-29 = system: HT-29
SF-295 = system: SF-295
UO-31 = system: UO-31
HCT-116 = system: HCT-116
RPMI-8226 = system: RPMI-8226
UACC-62 = system: UACC-62
IGROV-1 = system: IGROV-1
HOP-92 = system: HOP-92

Measured: GI50

CC(=O)Nc1ccc(C(=O)N2N=C(C)/C(=C\c3c(O)ccc4ccccc34)C2=O)cc1
inactive: LOX IMVI 59.8 µM | OVCAR-8 88.1 µM | NCI-H522 67 µM | SN12C 48.8 µM | KM12 > 100 µM | HCC 2998 > 100 µM | SF-539 56.4 µM | K562 74.8 µM | 786-0 > 100 µM | SNB-75 > 100 µM | HT-29 > 100 µM | SF-295 40.5 µM | UO-31 39 µM | HCT-116 93.5 µM | RPMI-8226 56.8 µM

CCOP(=O)(OCC)C1C(=O)O[C@H]2CCCC[C@@H]12 (stereo partly specified)
inactive: LOX IMVI > 100 µM | OVCAR-8 > 100 µM | SN12C > 100 µM | KM12 > 100 µM | HCC 2998 > 100 µM | UACC-62 > 100 µM | SF-539 > 100 µM | K562 > 100 µM | 786-0 > 100 µM | SNB-75 > 100 µM | HT-29 > 100 µM | SF-295 > 100 µM | IGROV-1 > 100 µM | HCT-116 > 100 µM | RPMI-8226 > 100 µM

CC1=NN(C(=O)Cc2ccccc2)C(=O)/C1=C\c1ccccc1O
inactive: LOX IMVI > 100 µM | OVCAR-8 > 100 µM | NCI-H522 > 100 µM | SN12C > 100 µM | KM12 > 100 µM | HCC 2998 > 100 µM | UACC-62 > 100 µM | SF-539 > 100 µM | K562 > 100 µM | 786-0 > 100 µM | HT-29 > 100 µM | HOP-92 > 100 µM | SF-295 > 100 µM | IGROV-1 > 100 µM | UO-31 > 100 µM | HCT-116 > 100 µM | RPMI-8226 > 100 µM

CN1CCCc2nc3ccccc3n2C1
inactive: LOX IMVI > 100 µM | OVCAR-8 > 100 µM | NCI-H522 97.7 µM | SN12C > 100 µM | KM12 > 100 µM | UACC-62 > 100 µM | SF-539 > 100 µM | K562 > 100 µM | 786-0 > 100 µM | SNB-75 > 100 µM | HT-29 > 100 µM | HOP-92 > 100 µM | SF-295 > 100 µM | IGROV-1 > 100 µM | UO-31 > 100 µM | HCT-116 > 100 µM | RPMI-8226 23.7 µM

Cc1cccc(C)c1NC(=O)C(=O)C(C#N)c1ccccc1 (stereo unspecified)
inactive: LOX IMVI > 100 µM | OVCAR-8 > 100 µM | NCI-H522 > 100 µM | SN12C > 100 µM | KM12 > 100 µM | HCC 2998 > 100 µM | UACC-62 > 100 µM | SF-539 > 100 µM | K562 > 100 µM | 786-0 > 100 µM | SNB-75 > 100 µM | HT-29 > 100 µM | HOP-92 > 100 µM | SF-295 > 100 µM | IGROV-1 > 100 µM | UO-31 > 100 µM | HCT-116 > 100 µM

Cn1cc(NC(=O)c2cc(NC(=O)CCCCCCCCCCC(=O)Nc3cc(C(=O)Nc4cc(C(=O)NCCC(=N)N)n(C)c4)n(C)c3)cn2C)cc1C(=O)NCCC(=N)N
inactive: LOX IMVI 40.4 µM | OVCAR-8 20.3 µM | NCI-H522 12.1 µM | SN12C 37.1 µM | KM12 12.4 µM | HCC 2998 19 µM | UACC-62 7.5 µM | SF-539 47.6 µM | K562 74 µM | 786-0 23.6 µM | SNB-75 > 100 µM | HT-29 29.1 µM | SF-295 50.8 µM | IGROV-1 24.5 µM | UO-31 > 100 µM | HCT-116 27 µM

CC1=CC(N2C(=O)C(C)=CC2O)NC1=O (stereo unspecified)
inactive: LOX IMVI > 100 µM | OVCAR-8 > 100 µM | NCI-H522 > 100 µM | SN12C > 100 µM | KM12 > 100 µM | HCC 2998 > 100 µM | SF-539 > 100 µM | 786-0 > 100 µM | SNB-75 > 100 µM | HT-29 > 100 µM | HOP-92 > 100 µM | SF-295 > 100 µM | UO-31 > 100 µM | HCT-116 > 100 µM

Cc1cc(N(CCC#N)CCC#N)ccc1/C=C1/CN(N2C(=O)/C(=C/c3ccc(N(CCC#N)CCC#N)cc3C)N=C2c2ccccc2)C(c2ccccc2)=N1
inactive: LOX IMVI > 100 µM | OVCAR-8 > 100 µM | NCI-H522 > 100 µM | SN12C > 100 µM | KM12 > 100 µM | HCC 2998 > 100 µM | UACC-62 > 100 µM | SF-539 99.5 µM | K562 > 100 µM | 786-0 54.3 µM | SNB-75 16.9 µM | HT-29 > 100 µM | HOP-92 44.6 µM | SF-295 48.8 µM | IGROV-1 > 100 µM | UO-31 > 100 µM | HCT-116 > 100 µM

O=c1nc(/C=C/c2ccccc2Cl)cc2n1CCN2CCO
inactive: LOX IMVI > 100 µM | OVCAR-8 > 100 µM | NCI-H522 24.3 µM | SN12C > 100 µM | KM12 59.4 µM | UACC-62 > 100 µM | SF-539 > 100 µM | K562 90.2 µM | 786-0 > 100 µM | SNB-75 26.3 µM | HT-29 > 100 µM | HOP-92 > 100 µM | SF-295 > 100 µM | IGROV-1 > 100 µM | UO-31 > 100 µM | HCT-116 > 100 µM | RPMI-8226 > 100 µM

COc1nc2c(nc(N)n2C2OCC(O)C(O)C2O)c(=O)n1C (stereo unspecified)
inactive: LOX IMVI > 100 µM | OVCAR-8 > 100 µM | NCI-H522 > 100 µM | SN12C > 100 µM | KM12 > 100 µM | HCC 2998 > 100 µM | UACC-62 > 100 µM | SF-539 > 100 µM | K562 > 100 µM | 786-0 > 100 µM | SNB-75 > 100 µM | HT-29 > 100 µM | HOP-92 > 100 µM | SF-295 > 100 µM | IGROV-1 > 100 µM | UO-31 > 100 µM | HCT-116 > 100 µM

COC(=O)CCSC(=O)Nc1ccc(/N=N/c2ccccc2)cc1
inactive: LOX IMVI 40.5 µM | OVCAR-8 45.8 µM | SN12C 69 µM | KM12 31.1 µM | HCC 2998 23.6 µM | UACC-62 34.4 µM | SF-539 > 100 µM | K562 45.8 µM | 786-0 57.7 µM | SNB-75 31 µM | HT-29 68.5 µM | HOP-92 95.7 µM | SF-295 47.9 µM | IGROV-1 56.9 µM | UO-31 51.3 µM | HCT-116 59.3 µM | RPMI-8226 49.1 µM

Cc1cc(CC(=O)NCCO)n(CCO)c(=O)c1
inactive: LOX IMVI > 100 µM | OVCAR-8 > 100 µM | NCI-H522 > 100 µM | SN12C > 100 µM | KM12 > 100 µM | HCC 2998 > 100 µM | UACC-62 > 100 µM | SF-539 > 100 µM | K562 > 100 µM | 786-0 > 100 µM | SNB-75 84.1 µM | HT-29 > 100 µM | HOP-92 > 100 µM | SF-295 > 100 µM | IGROV-1 > 100 µM | UO-31 > 100 µM | HCT-116 > 100 µM

From ChEMBL document CHEMBL1201862, “PubChem BioAssay data set” (2004)
